Experimental data: ChEMBL document CHEMBL5321295, “Targeted Degradation of Alpha-Synuclein by Autophagosome-Anchoring Chimera Peptides” (J Med Chem, 2023)
The source made the active and inactive calls. The rule behind the calls is not given here.

Tests used:
[1] = Toxicity in C57BL/6 mouse assessed as histological change in heart at 50 to 200 mg/kg/day treated for 5 days by H and E staining based analysis; type: organism-based; settings: in vivo, 120 h, dose 50-200 mg/kg/day, time 5 day
[2] = target: T1, Microtubule-associated protein 1 light chain 3 beta (Homo sapiens, UniProt Q9GZQ8); test: Binding affinity to biotinylated recombinant LC3B (unknown origin) assessed as dissociation constant by BLI assay
[3] = test system: Mus musculus; test: Neuroprotective activity in MPTP-induced anxiety-like status in C57BL/6 mouse assessed as increase in time spent in zone centers of mouse track at 50 mg/kg/day, iv treated for 5 days measured after 4 days by open field test; type: functional, organism-based; settings: time 9.0 day
[4] = test system: HEK-293T; test: Downregulation of SQSTM1 expression in HEK293T cells at 100 uM incubated for 24 hrs by proteomic profiling analysis; type: functional, cell-based; settings: Homo sapiens
[5] = test system: Mus musculus; test: Downregulation of total aggregated protein level in substantia nigra pars compacta of MPTP-treated C57BL/6 mouse at 50 mg/kg/day, iv treated for 5 days by ThS staining based analysis; type: functional, organism-based; settings: time 5.0 day
[6] = test system: HEK-293T; test: Downregulation of VAT1 expression in HEK293T cells at 100 uM incubated for 24 hrs by proteomic profiling analysis; type: functional, cell-based; settings: Homo sapiens
[7] = test system: HEK-293T; test: Downregulation of SNCA expression in HEK293T cells at 100 uM incubated for 24 hrs by proteomic profiling analysis; type: functional, cell-based; settings: Homo sapiens
[8] = test system: SH-SY5Y; test: Cytoprotective activity in human SH-SY5Y cells transfected with alpha-synuclein (unknown origin) assessed as viable cells at 100 uM measured after 24 hrs by […] based flow cytometry (reference value: 28.5 %); type: functional; settings: read-out: Activity
[9] = Drug localization in HEK293T cells overexpressing mCherry-fused alpha-synuclein (unknown origin) assessed as colocalization of autophagosomes at 50 uM incubated for 2 hrs by LyTG staining based confocal laser scanning microscopy; type: ADME, cell-based; settings: human, hek-293t
[10] = Toxicity in C57BL/6 mouse assessed as change in creatinine level at 50 to 200 mg/kg/day treated for 5 days; type: organism-based; settings: in vivo, 120 h, dose 50-200 mg/kg/day, time 5 day
[11] = Toxicity in C57BL/6 mouse assessed as lethargy at 50 to 200 mg/kg/day treated for 5 days; type: organism-based; settings: in vivo, 120 h, dose 50-200 mg/kg/day, time 5 day
[12] = test system: HEK-293T; test: Downregulation of SLC25A3 expression in HEK293T cells at 100 uM incubated for 24 hrs by proteomic profiling analysis; type: functional, cell-based; settings: Homo sapiens
[13] = test system: SH-SY5Y; test: Cytoprotective activity in human SH-SY5Y cells transfected with alpha-synuclein (unknown origin) assessed as decrease in ROS level at 100 uM measured after 24 hrs by confocal laser scanning microscopy/flow cytometry (reference value: 175.4 +/- 8.4 %); type: functional; set-up: scale not given: the % may be the effect or the level left
[14] = test system: Mus musculus; test: Downregulation of phosphorylated alpha-synuclein at S129 residue level in substantia nigra pars compacta of MPTP-treated C57BL/6 mouse at 50 mg/kg/day, iv treated for 5 days by IHC analysis; type: functional, organism-based; settings: time 5.0 day
[15] = test system: HEK-293T; test: Downregulation of DLST expression in HEK293T cells at 100 uM incubated for 24 hrs by proteomic profiling analysis; type: functional, cell-based; settings: Homo sapiens
[16] = test system: SH-SY5Y; test: Cytoprotective activity in human SH-SY5Y cells transfected with alpha-synuclein (unknown origin) assessed as decrease in ROS level at 100 uM measured after 24 hrs by DCFH-DA staining based flow cytometry (reference value: 76 %); type: functional; set-up: scale not given: the % may be the effect or the level left
[17] = test system: SH-SY5Y; test: Cytoprotective activity in human SH-SY5Y cells transfected with alpha-synuclein (unknown origin) assessed as early apoptotic cells at 100 uM measured after 24 hrs by […] based flow cytometry (reference value: 0.17 %); type: functional
[18] = test system: Mus musculus; test: Downregulation of aggregated alpha-synuclein level in substantia nigra pars compacta of MPTP-treated C57BL/6 mouse at 50 mg/kg/day, iv treated for 5 days by IHC analysis; type: functional, organism-based; settings: time 5.0 day
[19] = target: T2, Alpha-synuclein (Homo sapiens, UniProt P37840); test: Induction of alpha-synuclein (unknown origin) degradation overexpressed in HEK293T cells infected with adenovirus expressing mCherry-EGFP-LC3B at 50 uM incubated upto 24 hrs by immunoblot analysis; type: cell-based
[20] = target: T1, Microtubule-associated protein 1 light chain 3 beta; test: Induction of LC3B-mediated autophagy flux in HEK293T cells overexpressing alpha-synuclein (unknown origin) cotransfected with adenovirus-packaged plasmid encoding mCherry-EGFP-fused LC3B assessed as increase in density of lysosomes upto 100 uM incubated for 4 hrs by LyTR staining based confocal laser scanning microscopy; type: cell-based
[21] = target: T2, Alpha-synuclein; test: Induction of alpha-synuclein (unknown origin) degradation overexpressed in HEK293T cells infected with adenovirus expressing mCherry-EGFP-LC3B at 50 uM incubated for 3 hrs by immunoblot analysis; type: cell-based
[22] = test system: SH-SY5Y; test: Cytoprotective activity in human SH-SY5Y cells assessed as increase in CCCP-induced mitochondrial membrane potential level at 100 uM measured after 24 hrs by JC-1 staining based confocal laser scanning microscopy; type: functional, cell-based
[23] = Toxicity in C57BL/6 mouse assessed as tremor at 50 to 200 mg/kg/day treated for 5 days; type: organism-based; settings: in vivo, 120 h, dose 50-200 mg/kg/day, time 5 day
[24] = test system: Mus musculus; test: Neuroprotective activity in MPTP-induced cognitive impairment in C57BL/6 mouse assessed as decrease in escape latency in navigation trial phase at 50 mg/kg/day, iv treated for 5 days measured after 5 to 8 days days by morris water maze test; type: functional, organism-based; settings: time 10-13 day
[25] = Toxicity in C57BL/6 mouse assessed as change in LDHL level at 50 to 200 mg/kg/day treated for 5 days; type: organism-based; settings: in vivo, 120 h, dose 50-200 mg/kg/day, time 5 day
[26] = test system: HEK-293T; test: Downregulation of UBE2L3 expression in HEK293T cells at 100 uM incubated for 24 hrs by proteomic profiling analysis; type: functional, cell-based; settings: Homo sapiens
[27] = test system: Mus musculus; test: Neuroprotective activity in MPTP-induced anxiety-like status in C57BL/6 mouse assessed as increase in distance travelled in zone centers of mouse track at 50 mg/kg/day, iv treated for 5 days measured after 4 days by open field test; type: functional, organism-based; settings: time 9.0 day
[28] = target: T1, Microtubule-associated protein 1 light chain 3 beta; test: Binding affinity to LC3B in HEK293T cells overexpressing alpha-synuclein (unknown origin) assessed as shift in denaturation at 50 uM incubated for 4 hrs followed by heating at 40 to 75 degreeC for 3 mins by CETSA assay; type: cell-based; settings: time 243.0 min
[29] = test system: SH-SY5Y; test: Cytoprotective activity against CCCP-induced cytotoxicity in human SH-SY5Y cells assessed as cell viability at 100 uM by CCK8 assay; type: functional, cell-based
[30] = test system: SH-SY5Y; test: Cytoprotective activity in human SH-SY5Y cells transfected with alpha-synuclein (unknown origin) assessed as cell viability at 100 uM by CCK8 assay relative to control; type: functional; settings: read-out: Activity
[31] = test system: HEK-293T; test: Downregulation of NACA expression in HEK293T cells at 100 uM incubated for 24 hrs by proteomic profiling analysis; type: functional, cell-based; settings: Homo sapiens
[32] = Drug localization in HEK293T cells overexpressing mCherry-fused alpha-synuclein (unknown origin) assessed as puncta formation of alpha-synuclein at 50 uM incubated for 2 hrs by LyTG staining based confocal laser scanning microscopy; type: ADME, cell-based; settings: human, hek-293t
[33] = target: T2, Alpha-synuclein; test: Induction of alpha-synuclein (unknown origin) degradation overexpressed in HEK293T cells at 50 uM incubated for 24 hrs in presence of MG132 by immunoblot analysis; type: cell-based
[34] = Toxicity in C57BL/6 mouse assessed as histological change in kidney at 50 to 200 mg/kg/day treated for 5 days by H and E staining based analysis; type: organism-based; settings: in vivo, 120 h, dose 50-200 mg/kg/day, time 5 day

CC(C)C[C@H](NC(=O)[C@H](Cc1c[nH]cn1)NC(=O)[C@@H](NC(=O)[C@H](Cc1c[nH]c2ccccc12)NC(=O)[C@H](CC(=O)O)NC(=O)[C@H](CC(=O)O)NC(=O)[C@H](CC(=O)O)NC(=O)CNC(=O)CNC(=O)[C@H](CO)NC(=O)[C@H](CO)NC(=O)CNC(=O)[C@H](CO)NC(=O)CNC(=O)[C@H](CCCNC(=N)N)NC(=O)[C@@H](NC(=O)[C@H](CCCCN)NC(=O)[C@H](CO)NC(=O)CNC(=O)[C@@H](NC(=O)[C@H](Cc1ccc(O)cc1)NC(=O)[C@H](CC(C)C)NC(=O)[C@@H](NC(=O)CN)C(C)C)C(C)C)[C@H](C)O)[C@@H](C)O)C(=O)N[C@@H](CO)C(=O)N[C@@H](CO)C(=O)N[C@@H](Cc1ccc(O)cc1)C(=O)NCC(=O)N[C@@H](CCCNC(=N)N)C(=O)N[C@@H](CCCCN)C(=O)N[C@@H](CCCCN)C(=O)N[C@@H](CCCNC(=N)N)C(=O)N[C@@H](CCCNC(=N)N)C(=O)N[C@@H](CCC(N)=O)C(=O)N[C@@H](CCCNC(=N)N)C(=O)N[C@@H](CCCNC(=N)N)C(=O)N[C@@H](CCCNC(=N)N)C(=O)O
Activity [1]: Non-Toxic
Kd [2]: 14.9 µM
Activity [3]: Active
Activity [4]: Active
Activity [5]: Active
Activity [6]: Active
Activity [7]: Active
viability at 100 µM [8]: 15.5%
Drug uptake [9]: Active
Activity [10]: Non-Toxic
Activity [11]: Non-Toxic
Activity [12]: Active
Activity [13]: 127.7%
Activity [14]: Active
Activity [15]: Active
Activity [16]: 26.7%
Activity [17]: 0.76%
Activity [18]: Active
Activity [19]: Active
Activity [20]: Active
Activity [21]: Active
Activity [22]: inactive
Activity [23]: Non-Toxic
Activity [24]: Active
Activity [25]: Non-Toxic
Activity [26]: Active
Activity [27]: Active
Activity [28]: Active
Activity [29]: inactive
viability at 100 µM [30]: 94.9%
Activity [31]: Active
Drug uptake [32]: Active
Activity [33]: Active
Activity [34]: Non-Toxic
